These results are taken from patent US10398659B2, “Adjuvant chemotherapy for anaplastic gliomas” (OKLAHOMA MEDICAL RESEARCH FOUNDATION, priority 2008, dated 2019).

For data set [1] the following is noted: in vivo; cited from earlier work.
The next data set has as its system C6 gliomas. Conditions: cited from earlier work.
A further data set has as its system iNOS. Put plainly: iNOS protein expression in C6 cells. Particulars: 100 μM. The format is cell-based, rat. From the text: (§1) The inventors then examined iNOS and VEGF protein expressions in the 2,4-ds-PBN treated C6 cells.
For the next data set, the system named is C6 cells. Put plainly: cell proliferation. The format is cell-based, rat. Particulars: concentration dependence.
The conditions of data set [2]: rats; cited from earlier work.
For data set [3], the system named is pro-caspase 3 and pro-caspase 9. The data set can be described thus: Western blots of apoptotic factors in C6 cells. Conditions: increasing concentrations. The class given is cell-based, rat. Here is the method: FIG. 6: Western blots of rat C6 cells with increasing concentrations of 2,4-ds-PBN. Increasing levels of apoptotic factors pro-caspase 3 and pro-caspase 9 are shown, relative to actin.
(§2) FIG. 4 represents a series of MR images taken over a period of 25 days for an untreated control group and representative data (best-case, average effect, and worst-case) for 2,4-ds-PBN-treated rats (via drinking water administration at a dose of 17 mg/kg/day). […] Rats treated with 2,4-ds-PBN achieved >80% survival over the 40 day study period (n=15), compared to non-treated rats (n=5). […] Gross signs of adverse effects that were monitored included weight loss, ruffling of fur, and behavioural and postural changes.
For orientation: In western blotting, separated proteins are transferred to a membrane and probed.

Data set [4] is described as follows: monitoring of adverse effects and toxicity in treated glioma rats. The format is in vivo. The text has this: . n=15 for 2,4-ds-PBN-treated rats, and n=5 for non-treated rats) in 2,4-ds-PBN-treated rats (see FIG. 5). Rats treated with 2,4-ds-PBN achieved >80% survival over the 40 day study period (n=15), compared to non-treated rats (n=5). […] Gross signs of adverse effects that were monitored included weight loss, ruffling of fur, and behavioural and postural changes.

The subject of another data set is C6 glioma. Put plainly: intracerebral C6 rat glioma cell implantation model, MR imaging. The format is in vivo. Here is the method: The inventors used an intracerebral C6 rat glioma cell implantation method, widely accepted by the glioma research field, as a good model for gliomas. To induce glioma in rats, C6 rat glioma cells (10^6 cells in 10 μL were injected into the cerebral cortex of male Fischer 344 rats. Fifteen days later, 2,4-ds-PBN was orally administered through drinking water (0.015%, 17.5 mg/kg). The efficacy of 2,4-ds-PBN was assessed with the tumor growth patterns and growth rates by using magnetic resonance (MR) imaging (T1/T2-weighted imaging) methods over the course of a month.
as §2

The next data set concerns VEGF. The data set can be described thus: VEGF protein expression in C6 cells. The format is cell-based, rat. Conditions: 5 mM.
Text: as §1

A further data set can be described thus: solubility in water. The format is physicochemical. Particulars: free acid. From the text: The product so formed is the free acid and is characterized by a molecular weight of […]. It is a white powdery material which decomposes upon heating. […]; 8.836 ppm (d, 8.4 Hz); 8.839 ppm (d, 1.7 Hz); 8.774 ppm (s).

Counter-ions that a name gives are not always drawn.

Take `CC[C@]1(O)C[C@H]2CN(CCc3c([nH]c4ccccc34)[C@@](C(=O)OC)(c3cc4c(cc3OC)N(C=O)[C@H]3[C@@](O)(C(=O)OC)[C@H](OC(C)=O)[C@]5(CC)C=CCN6CC[C@]43[C@@H]65)C2)C1` [Vincristine, vincaleukoblastine, a 22-oxo-, sulfate (1:1) (salt)]: the blood-brain-barrier penetration entry in data set [1] was “does not appear to cross the blood brain barrier”.

Consider `CC(C)(C)[N+]([O-])=Cc1ccccc1` [PBN, phenyl N-tert-butyl nitrone], for which the “effect on tumor growth, pretreatment” value in the data set with C6 gliomas (PBN administration as a pretreatment, rat C6 glioma) was “decrease in growth rate and tumor regression”. For the same compound, the “effect on tumor regression, post-treatment” value in the data set with C6 gliomas (post-treatment of PBN, compared with pre-treatment) was “little effect for tumor regression”. In the data set with iNOS, the iNOS expression decrease was determined as 5%. Also, in the data set with C6 cells, the “inhibition of cell proliferation” value was “significantly inhibited cell proliferation in a concentration dependent manner”. In [2], the half-life entry is recorded as “about 132 minutes”. Moreover, the blood-brain-barrier penetration result in data set [1] is listed as “easily penetrate the BBB”.

As for `CC(C)(C)/[N+]([O-])=C/c1ccccc1S(=O)(=O)O` [S-PBN], in the data set with C6 cells, the “inhibition of cell proliferation” value is “little effect”.

With `CC(C)(C)[N+]([O-])=Cc1ccc(S(=O)(=O)O)cc1S(=O)(=O)O` [2,4-ds-PBN, 2,4-disulfonyl phenyl tert-butyl nitrone], in data set [3], the “apoptotic effect (pro-caspase 3, pro-caspase 9 levels relative to actin)” value was “pro-apoptotic as concentration increases”. Moreover, the iNOS expression decrease result in the data set on iNOS is recorded as “approximately 75%”. The toxicity effects entry in data set [4] (rat, in vivo) is “No toxicity effects were detected”. In data set [4] (weight loss, ruffling of fur, behavioural and postural changes monitored), the “side effects during the treatment period” value was “No side effects were observed”. Further, the “C6 glioma tumor volumes decrease” value with C6 glioma (17 mg/kg/day via drinking water from day 15 after cell implantation, vs non-treated rats, n=15 vs n=5) is given as over 15 fold. The “survival over the 40 day study period” value in the data set with C6 glioma (2,4-ds-PBN in drinking water, n=15, compared to non-treated rats (n=5)) is over 80%. Besides, in the data set with VEGF, the VEGF expression reduction is 50%. Moreover, the “inhibition of cell proliferation” value in the data set with C6 cells is recorded as “little effect”. Besides, the solubility (in general, how much of the substance goes into solution per volume) in the data set “solubility in water” was over 1000 mg/mL. In [1], the blood-brain-barrier penetration result was “cannot easily pass through the BBB”.

In the case of `O=NN(CCCl)C(=O)NC1CCCCC1` [Lomustine, 1-(2-chloroethyl)-3-cyclohexyl-1-nitrosourea], in data set [1], the blood-brain-barrier penetration result is recorded as “crosses the blood brain barrier”.
